# Experimental data: PubChem BioAssay (NCI)
#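 Compound exposure: 48 hours, 5 concentrations, 96-well plates. Here, GI50 denotes the concentration required for 50% inhibition of growth. Definition used: TGI = concentration required for complete inhibition of growth.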
# What was measured:
# Test in all cases: growth of human tumour cells (NCI), 48 h
# M14 melanoma = tested on: M14 melanoma
# HS 578T breast = tested on: HS 578T breast
# COLO 205 colon = tested on: COLO 205 colon
# IGROV1 ovarian = tested on: IGROV1 ovarian
# OVCAR-4 ovarian = tested on: OVCAR-4 ovarian
# MALME-3M melanoma = tested on: MALME-3M melanoma
# NCI-H226 lung = tested on: NCI-H226 lung
# OVCAR-3 ovarian = tested on: OVCAR-3 ovarian
# TK-10 renal = tested on: TK-10 renal
# SF-295 CNS = tested on: SF-295 CNS
# DU-145 prostate = tested on: DU-145 prostate
# CAKI-1 renal = tested on: CAKI-1 renal
# MDA-MB-231 breast = tested on: MDA-MB-231 breast
# HCC-2998 colon = tested on: HCC-2998 colon
# SK-MEL-28 melanoma = tested on: SK-MEL-28 melanoma
# SNB-19 CNS = tested on: SNB-19 CNS
# RPMI-8226 leukemia = tested on: RPMI-8226 leukemia
# OVCAR-5 ovarian = tested on: OVCAR-5 ovarian
# HOP-62 NSCLC = tested on: HOP-62 NSCLC
# KM12 colon = tested on: KM12 colon
# HOP-92 NSCLC = tested on: HOP-92 NSCLC
# HT29 colon = tested on: HT29 colon
# NCI-H23 lung = tested on: NCI-H23 lung
# SW-620 colon = tested on: SW-620 colon
# SK-MEL-2 melanoma = tested on: SK-MEL-2 melanoma
# MOLT-4 leukemia = tested on: MOLT-4 leukemia
# ACHN renal = tested on: ACHN renal
# OVCAR-8 ovarian = tested on: OVCAR-8 ovarian
# SK-MEL-5 melanoma = tested on: SK-MEL-5 melanoma
# UACC-257 melanoma = tested on: UACC-257 melanoma
# UACC-62 melanoma = tested on: UACC-62 melanoma
# SF-539 CNS = tested on: SF-539 CNS
# T-47D breast = tested on: T-47D breast
# SNB-75 CNS = tested on: SNB-75 CNS
# PC-3 prostate = tested on: PC-3 prostate
# NCI/ADR-RES ovarian = tested on: NCI/ADR-RES ovarian
# HCT-15 colon = tested on: HCT-15 colon
# HL-60(TB) leukemia = tested on: HL-60(TB) leukemia
# BT-549 breast = tested on: BT-549 breast
# MDA-MB-435 = tested on: MDA-MB-435
# MCF7 breast = tested on: MCF7 breast
# NCI-H522 lung = tested on: NCI-H522 lung
# LOX IMVI melanoma = tested on: LOX IMVI melanoma
# CCRF-CEM leukemia = tested on: CCRF-CEM leukemia
# EKVX NSCLC = tested on: EKVX NSCLC
# SF-268 CNS = tested on: SF-268 CNS
# SK-OV-3 ovarian = tested on: SK-OV-3 ovarian
# UO-31 renal = tested on: UO-31 renal
# A498 renal = tested on: A498 renal
# HCT-116 colon = tested on: HCT-116 colon
# K-562 leukemia = tested on: K-562 leukemia
# 786-0 renal = tested on: 786-0 renal
# NCI-H460 lung = tested on: NCI-H460 lung
# U251 CNS = tested on: U251 CNS
# RXF 393 renal = tested on: RXF 393 renal
# A549 NSCLC = tested on: A549 NSCLC
# SN12C renal = tested on: SN12C renal
compound,measurement,setting,value
COc1ccc(Sc2[nH]c(C=O)c3ccccc23)cc1,GI50,M14 melanoma,12.4 µM
same,TGI,M14 melanoma,26 µM
same,GI50,HS 578T breast,6.44 µM
same,TGI,HS 578T breast,33.6 µM
same,GI50,COLO 205 colon,664 nM
same,TGI,COLO 205 colon,6 µM
same,GI50,IGROV1 ovarian,13.8 µM
same,TGI,IGROV1 ovarian,37.6 µM
same,GI50,OVCAR-4 ovarian,22.4 µM
same,TGI,OVCAR-4 ovarian,61.7 µM
same,GI50,MALME-3M melanoma,14.2 µM
same,TGI,MALME-3M melanoma,38.8 µM
same,GI50,NCI-H226 lung,2620 nM
same,TGI,NCI-H226 lung,16.8 µM
same,GI50,OVCAR-3 ovarian,11.9 µM
same,TGI,OVCAR-3 ovarian,24.2 µM
same,GI50,TK-10 renal,10.6 µM
same,TGI,TK-10 renal,45.1 µM
same,GI50,SF-295 CNS,9.16 µM
same,TGI,SF-295 CNS,26.9 µM
same,GI50,DU-145 prostate,6.25 µM
same,TGI,DU-145 prostate,21.6 µM
same,GI50,CAKI-1 renal,16.7 µM
same,TGI,CAKI-1 renal,84 µM
same,GI50,MDA-MB-231 breast,13.4 µM
same,TGI,MDA-MB-231 breast,34.2 µM
same,GI50,HCC-2998 colon,5.44 µM
same,TGI,HCC-2998 colon,18.2 µM
same,GI50,SK-MEL-28 melanoma,15.1 µM
same,TGI,SK-MEL-28 melanoma,30 µM
same,GI50,SNB-19 CNS,4.78 µM
same,TGI,SNB-19 CNS,18.5 µM
same,GI50,RPMI-8226 leukemia,7.13 µM
same,TGI,RPMI-8226 leukemia,26 µM
same,GI50,OVCAR-5 ovarian,6.1 µM
same,TGI,OVCAR-5 ovarian,28.3 µM
same,GI50,HOP-62 NSCLC,15.5 µM
same,TGI,HOP-62 NSCLC,29.7 µM
same,GI50,KM12 colon,3.62 µM
same,TGI,KM12 colon,13.7 µM
same,GI50,HOP-92 NSCLC,5.52 µM
same,TGI,HOP-92 NSCLC,21 µM
same,GI50,HT29 colon,4.02 µM
same,TGI,HT29 colon,14.1 µM
same,GI50,NCI-H23 lung,14.3 µM
same,TGI,NCI-H23 lung,32.3 µM
same,GI50,SW-620 colon,3.72 µM
same,TGI,SW-620 colon,16.4 µM
same,GI50,SK-MEL-2 melanoma,13.6 µM
same,TGI,SK-MEL-2 melanoma,32.4 µM
same,GI50,MOLT-4 leukemia,1310 nM
same,TGI,MOLT-4 leukemia,19 µM
same,GI50,ACHN renal,14.9 µM
same,TGI,ACHN renal,28.8 µM
same,GI50,OVCAR-8 ovarian,14.1 µM
same,TGI,OVCAR-8 ovarian,32 µM
same,GI50,SK-MEL-5 melanoma,12.9 µM
same,TGI,SK-MEL-5 melanoma,25.5 µM
same,GI50,UACC-257 melanoma,20.1 µM
same,TGI,UACC-257 melanoma,49.6 µM
same,GI50,UACC-62 melanoma,11 µM
same,TGI,UACC-62 melanoma,26.1 µM
same,GI50,SF-539 CNS,10.9 µM
same,TGI,SF-539 CNS,23 µM
same,GI50,T-47D breast,9.08 µM
same,TGI,T-47D breast,30.2 µM
same,GI50,SNB-75 CNS,11.9 µM
same,TGI,SNB-75 CNS,25.5 µM
same,GI50,PC-3 prostate,13.3 µM
same,TGI,PC-3 prostate,41.4 µM
same,GI50,NCI/ADR-RES ovarian,11.6 µM
same,TGI,NCI/ADR-RES ovarian,47.5 µM
same,GI50,HCT-15 colon,11.6 µM
same,TGI,HCT-15 colon,24.4 µM
same,GI50,HL-60(TB) leukemia,5.09 µM
same,TGI,HL-60(TB) leukemia,28.4 µM
same,GI50,BT-549 breast,2030 nM
same,TGI,BT-549 breast,12.1 µM
same,GI50,MDA-MB-435,2680 nM
same,TGI,MDA-MB-435,11.5 µM
same,GI50,MCF7 breast,12.8 µM
same,TGI,MCF7 breast,30.2 µM
same,GI50,NCI-H522 lung,14.3 µM
same,TGI,NCI-H522 lung,31.8 µM
same,GI50,LOX IMVI melanoma,12.3 µM
same,TGI,LOX IMVI melanoma,25.4 µM
same,GI50,CCRF-CEM leukemia,5.66 µM
same,TGI,CCRF-CEM leukemia,22.3 µM
same,GI50,EKVX NSCLC,5.49 µM
same,TGI,EKVX NSCLC,34.1 µM
same,GI50,SF-268 CNS,14.9 µM
same,TGI,SF-268 CNS,31.2 µM
same,GI50,SK-OV-3 ovarian,4.99 µM
same,TGI,SK-OV-3 ovarian,24.9 µM
same,GI50,UO-31 renal,5.11 µM
same,TGI,UO-31 renal,22.2 µM
same,GI50,A498 renal,3.44 µM
same,TGI,A498 renal,23.5 µM
same,GI50,HCT-116 colon,12.7 µM
same,TGI,HCT-116 colon,25.3 µM
same,GI50,K-562 leukemia,2140 nM
same,TGI,K-562 leukemia,14.2 µM
same,GI50,786-0 renal,12 µM
same,TGI,786-0 renal,26.1 µM
same,GI50,NCI-H460 lung,2940 nM
same,TGI,NCI-H460 lung,11.2 µM
same,GI50,U251 CNS,12.3 µM
same,TGI,U251 CNS,24.8 µM
same,GI50,RXF 393 renal,10.7 µM
same,TGI,RXF 393 renal,33.3 µM
same,GI50,A549 NSCLC,13.3 µM
same,TGI,A549 NSCLC,> 100 µM
same,GI50,SN12C renal,14.9 µM
same,TGI,SN12C renal,33.1 µM
